Patent US7803757B2, “Peptides based on the sequence of human lactoferrin and their use” (PharmaSurgics in Sweden AB, priority 1998, dated 2010)
Square brackets hold non-standard residues; d marks the D form. Ends that are not written are not given here. Nle = CCCC[C@H](N)C(=O)O

How the values were obtained:
Type in all cases: cell-based
E. coli O14 = test: bactericidal activity against E. coli O14, comparison with EP-A-0 629 347 peptides (Example 7)
Procedure: (§1) In this example an in vitro test was performed to compare the bactericidal and fungicidal activity of the peptides according to the invention with peptides described in EP-A-0 629 347. The peptide according to the invention used was peptide 4, and the peptides according to EP-A-0 629 347 called Morinaga 10, Morinaga 11, Morinaga 12, and Morinaga 13.
(§2) The peptides were incubated with E. coli O14 and Candida albicans. Two concentrations of C. albicans yeast cells were tested, 5·10^6 and 5·10^3 per ml. Different concentrations of the peptides were tested.
(§3) After the incubation, samples were taken for bacterial plating. Serial dilutions of tenfold steps were used in the experiments marked with I in table 5 and of twofold steps in the experiments marked with II.

Candida albicans = test: fungicidal activity against Candida albicans, comparison with EP-A-0 629 347 peptides (Example 7); details: C. albicans, I (tenfold steps)
Procedure: as §1, §2, §3

E. coli [1] = test: MMC99% of modified peptides, E. coli (Example 26); details: BHI diluted 1/100, pH approximately 6.7-6.9 (Table 22)
Procedure: (§4) In the examples, the minimal microbicidal concentrations (MMC) and minimal inhibitory concentrations (MIC) were determined as follows, unless otherwise specified in the examples. Bacterial or fungal strains were cultured in BHI medium over night at 37° C. A volume of the culture was transferred to a new tube with BHI and incubated for two more hours. Thereafter the cells were spun down and the pellet was suspended in BHI medium diluted 1/100 (1% BHI). The concentration of bacterial or fungal cells was spectrophotometrically determined at 650 nm. The microbial concentrations were also determined by viable counts. Peptides serially diluted in 1% BHI by twofold or tenfold steps were added in triplicate to the wells of a microtiterplate (200 μl per well). The bacterial or fungal cell solutions were added in 10 μl volumes to give a final concentration of approximately 1-5×10^5 cells per ml in the well. The microplate was incubated at 37° C. in a humid chamber for two hours. Thereafter 5 μl was taken from each well and added as a drop onto a blood agar plate and incubated over night at 37° C. The microplate was incubated for another 20 hours at 37° C. and thereafter analysed spectrophotometrically at 650 nm in a microplate reader (Emax, Molecular Devices, USA). The concentration of peptide causing a 99% reduction of the inoculum after 2 hours of incubation was defined as the MMC99%. The MIC value was defined as the concentration giving no increase in the absorbance value above the background level after 20 hours of incubation.
(§5) In this example the fungicidal, and bactericidal effects of the different peptides obtained in example 22 were studied. C. albicans, E. coli and S. aureus, respectively, were incubated in BHI medium diluted 1/100, with a pH of approximately 6.7-6.9. The concentration of each peptide needed to kill 99% of the microorganisms (MMC99%) was determined.

S. aureus [2] = test: MMC99% of modified peptides, S. aureus (Example 26); details: BHI diluted 1/100, pH approximately 6.7-6.9 (Table 22)
Procedure: as §4, §5

C. albicans [3] = test: MMC99% of modified peptides, C. albicans (Example 26); details: BHI diluted 1/100, pH approximately 6.7-6.9 (Table 22)
Procedure: as §4, §5

C. albicans [4] = test: microbicidal activity MMC99%, C. albicans (Example 28); details: C. albicans (Table 24)
Procedure: as §4
(§6) In this example the microbicidal activity of eight of the peptides according to the invention was studied, and tested against E. coli O6K5 and C. albicans.
(§7) The concentration of each peptide needed to kill 99% of the microorganisms (MMC99%) was determined.

S. aureus [5] = test: MMC99% of modified peptides, S. aureus (Example 25); details: BHI diluted 1/100, pH approximately 6.7-6.9 (Table 21)
Procedure: as §4
as §5, with “examples 18-21” for “example 22”

C. albicans [6] = test: MMC99% of modified peptides, C. albicans (Example 25); details: BHI diluted 1/100, pH approximately 6.7-6.9 (Table 21)
Procedure: as §4
as §5, with “examples 18-21” for “example 22”

E. coli [7] = test: MMC99% of modified peptides, E. coli (Example 25); details: BHI diluted 1/100, pH approximately 6.7-6.9 (Table 21)
Procedure: as §4
as §5, with “examples 18-21” for “example 22”

E. coli O6K5 = test: microbicidal activity MMC99%, E. coli O6K5 (Example 28); details: E. coli O6K5 (Table 24)
Procedure: as §4, §6, §7

K. pneumoniae = test: killing of bacteria at fixed peptide concentration, K. pneumoniae (Example 12); details: peptide 25 μg/ml
Procedure: (§8) In this example, the peptides according to the invention were used to study the effect on the killing of different bacteria.
(§9) The peptides were used at a concentration of 25 μg/ml.

multiresistant S. aureus = test: bactericidal activity, multiresistant S. aureus (Example 18); details: multiresistant S. aureus 5.0×10^5 per ml
Procedure: In this example the bactericidal activity of two of the peptides according to the invention was studied in a test with a multiresistant S. aureus. A bacterial solution with a concentration of 5.0×10^5 S. aureus bacterial per ml was used. The concentration of each peptide needed to kill 99% of the bacteria (MMC99%) was determined after 2 hours and after 24 hours of incubation at 37° C.

E. coli O6 = test system: E. coli O6
Procedure: as §4
(§10) C. albicans (ATCC64549) and E. coli O6, respectively, were incubated with the different peptides. The experiments were performed with 1, 10, 25 and 100 μg/ml of peptide.

C. albicans (ATCC64549) = test system: C. albicans (ATCC64549)
Procedure: as §4, §10

[8] = test system: C. albicans yeast cells (ATCC64549); test: killing and growth inhibition of C. albicans at pH 4.5 (Example 11); parameters: key to C. albicans inhibition (OD650): + = no increase in OD650 is seen; − = OD650 continues to increase; details: pH 4.5, 1% BHI, 25 μg/ml of the peptide
Procedure: C. albicans yeast cells (ATCC64549) were incubated for 2 hours at pH 4.5 in BHI medium diluted to 1% of the original concentration containing 25 µg/ml of the peptide. Thereafter the fungal solutions were cultured on blood agar plates. OD650 was measured after incubation during an additional 18 hours. The fungicidal effect of the peptides on C. albicans was determined as the ability of the peptide to kill 100% and 99%, respectively, of the fungus, while the growth inhibitory effect was determined by measuring the OD650. An inhibitory effect existed when no increase in OD650 was recorded.

S. aureus [9] = test: killing of bacteria at fixed peptide concentration, S. aureus (Example 12); details: peptide 25 μg/ml
Procedure: as §8, §9

E. faecalis = test: killing of bacteria at fixed peptide concentration, E. faecalis (Example 12); details: peptide 25 μg/ml
Procedure: as §8, §9

P. aeruginosa = test: killing of bacteria at fixed peptide concentration, P. aeruginosa (Example 12); details: peptide 25 μg/ml
Procedure: as §8, §9

S. epidermis = test: killing of bacteria at fixed peptide concentration, S. epidermis (Example 12); details: peptide 25 μg/ml
Procedure: as §8, §9

[10] = E. coli O14, I: serial dilutions of tenfold steps

## F-Q-W-Q-R-N (FQWQRN) [Morinaga 10]
E. coli O14; [10]
  Concentration of agent for 100% killing: >500 µg/mL
E. coli O14; E. coli O14, II: serial dilutions of twofold steps
  Concentration of agent for 100% killing: 1000 µg/mL
Candida albicans; 5 · 10^3 yeast cells per ml
  Concentration of agent for 100% killing: >2000 µg/mL
Candida albicans; 5 · 10^6 yeast cells per ml
  Concentration of agent for 100% killing: >2000 µg/mL

## C-F-A-W-Q-R-A-M-R-K-V-R (CFAWQRAMRKVR) [SEQ. ID. NO. 94]
E. coli [1]
  MMC99%: 6
S. aureus [2]
  MMC99%: 6
C. albicans [3]
  MMC99%: 12

## C-F-Q-W-Nle-R-N-M-R-K-V-R (CFQW[Nle]RNMRKVR) [SEQ. ID. NO. 88]
C. albicans [4]
  MMC99%: 10
S. aureus [5]
  MMC99%: 3.5
C. albicans [6]
  MMC99%: 6
E. coli [7]
  MMC99%: 12
E. coli O6K5
  MMC99%: 5

## C-F-Q-L-Q-K-N-M-K-K-V-R (CFQLQKNMKKVR) [SEQ. ID. NO. 95]
E. coli [1]
  MMC99%: 6
S. aureus [2]
  MMC99%: 6
C. albicans [3]
  MMC99%: 12

## W-Q-R [Morinaga 13]
E. coli O14; [10]
  Concentration of agent for 100% killing: >500 µg/mL
Candida albicans; 5 · 10^3 yeast cells per ml
  Concentration of agent for 100% killing: >2000 µg/mL
Candida albicans; 5 · 10^6 yeast cells per ml
  Concentration of agent for 100% killing: >2000 µg/mL

## Q-W-Q-R [Morinaga 12]
E. coli O14; [10]
  Concentration of agent for 100% killing: >500 µg/mL
Candida albicans; 5 · 10^3 yeast cells per ml
  Concentration of agent for 100% killing: >2000 µg/mL
Candida albicans; 5 · 10^6 yeast cells per ml
  Concentration of agent for 100% killing: >2000 µg/mL

## KCFQWQRNMRKVR [Peptide 48]
K. pneumoniae
  killing of bacteria: K. pneumoniae: + (+ = 99% of the bacteria are killed)
Multiresistant S. aureus; 2 hours at 37° C.
  MMC99%: 5.0 µg/mL
Multiresistant S. aureus; 24 hours at 37° C.
  MMC99%: ≦0.32 μg/ml
E. coli O6; E. coli O6, tested at 1, 10, 25 and 100 μg/ml of peptide
  MMC99%: 10 µg/mL
E. coli O6; O6
  MIC: 10 µg/mL
C. albicans (ATCC64549); ATCC64549
  MIC: 10 µg/mL
C. albicans (ATCC64549); C. albicans, tested at 1, 10, 25 and 100 μg/ml of peptide
  MMC99%: 10 µg/mL
[8]; OD650 after an additional 18 hours
  C. albicans inhibition (OD650): +
[8]; 2 hours
  C. albicans killing: 99%: + (+ = 100/99% of the bacteria are killed)
  C. albicans killing: 100%: + (+ = 100/99% of the bacteria are killed)
S. aureus [9]
  killing of bacteria: S. aureus: + (+ = 99% of the bacteria are killed)
E. faecalis
  killing of bacteria: E. faecalis: + (+ = 99% of the bacteria are killed)
P. aeruginosa
  killing of bacteria: P. aeruginosa: + (+ = 99% of the bacteria are killed)
S. epidermis
  killing of bacteria: S. epidermis: + (+ = 99% of the bacteria are killed)

## C-F-A-L-K-K-A-M-K-K-V-R (CFALKKAMKKVR) [SEQ. ID. NO. 96]
E. coli [1]
  MMC99%: 6
S. aureus [2]
  MMC99%: 12
C. albicans [3]
  MMC99%: 12
